Tests used:
[1] = test system: hair regrowth in telogen-phase C3H/HeN Slc mice; assay: Examination of trichogenous effect (hair regrowth on shaved back of mice); type: in vivo; settings: 10 mg/mL test solution
Protocol: The trichogenous effect in mice of the astaxanthin monoester obtained in Preparation Example 1 was examined. The astaxanthin monoester obtained in Preparation Example 1 was dissolved in 20% (v/v) ethanol-containing a-tocopherol to prepare a 10 mg/mL astaxanthin monoester test solution. Male 7-week-old C3H/HeN Slc (SPF) mice were divided into three groups, i.e., a test group, a positive control group, and a negative control group, of 10 each. It should be noted that 45 to 95-day-old C3H mice are in the telogen phase of the hair cycle. Hairs were shaved from a site measuring 5 cm x 3 cm on the back of each mouse, and the above-described test solution was applied to that site in a dosage of 0.05 mL once a day for 18 days to observe the conditions of hair regrowth. In the positive control group, 1% (w/v) minoxidil (in 50% (v/v) ethanol), and in the negative control group, 50% (v/v) ethanol were applied. The conditions of hair regrowth were evaluated, using the following scoring criteria, expressed in terms of percentage of the surface area of the test site where the observed change occurred.
1: skin changed to gray (in less than 50% of area)
2: skin changed to gray (in 50% or more of area) and hair regrowth was observed (in less than 50% of area)
3: skin changed to gray (in 50% or more of area) and hair regrowth was observed (in 50% or more but less than 80% of area)
4: hair regrowth was observed distinctly (in 80% or more but less than 100% of area)
5: hair regrowth was observed distinctly (in 100% of area)

[2] = test system: Human umbilical vein endothelial cells (HUVECs); assay: Measurement of 50% lethal concentration for HUVEC (alamarBlue); type: cell-based; settings: 72 hours incubation, 250 μM = maximum concentration dissolved in DMSO
Protocol: Human umbilical vein endothelial cells (HUVECs) (ATCC CRL-1730) were obtained from American Type Culture Collection and precultivated in an Endothelial Cell Growth Medium (CELL APPLICATIONS, USA) containing 10% bovine fetal serum supplemented with 1% Antibiotic-Antimycotic solution (GIBCO BRL, USA) under a 5% CO2 atmosphere at 37° C.
A Matrigel matrix (BD Biosciences, USA) was melted and kept at 4° C. on ice, and then, 50 μL of the matrix were transferred to each well of a 96-well tissue culture plate. The plate was incubated at 37° C. for at least one hour to solidify the matrix solution. […]
After the incubation, 20 μL of a 90% alamarBlue reagent were added to individual wells, and incubated for an additional 6 hours. Then, the fluorescence intensity of each well was measured at an excitation wavelength of 530 nm and an emission wavelength of 590 nm using a Spectrafluor Plus plate reader to count the number of living cells. […] The 50% lethal concentration was calculated as the concentration at which the number of living cells was 50% of the number of cells at the start of the experiment.

With astaxanthin monoester the “trichogenous effect (hair regrowth scoring) compared to negative control group” value ([1]; 0.05 mL applied once a day for 18 days to shaved back of male C3H/HeN mice, vs 50% ethanol) was “markedly superior trichogenous effect”, the “appearance (onset) of trichogenous effect compared to positive control group” value ([1]; 0.05 mL once a day for 18 days, topical, mice, vs 1% (w/v) minoxidil) was “appeared a little later than in the positive control group” and the “rate of progress of hair regrowth after the hairs begun to grow” value ([1]; 0.05 mL once a day for 18 days, topical, mice, vs 1% minoxidil and negative control) was “higher than that in the positive control group”. It also gave an LC50 (50% lethal concentration) [2] of at least 250 µM.

From patent US20060269497A1, “Trichogenous agent” (YAMAHA HATSUDOKI KABUSHIKI KAISHA, priority 2005, published 2006)
